How the values were obtained:
[1] = tested on: canarygrass (Phalaris minor); assay: Test C postemergence: canarygrass; type: in vivo
Procedure, shortened: (§1)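 Crop and weed plants were grown in peat-vermiculite medium and treated postemergence at the 1- to 4-leaf stage (2-18 cm tall). After 13-15 days in a greenhouse, each species was rated visually against untreated controls on a 0-100 scale (0 no effect, 100 complete control).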

[2] = tested on: deadnettle (henbit deadnettle, Lamium amplexicaule); assay: Test C postemergence: deadnettle; type: in vivo
Procedure, shortened: as §1

[3] = tested on: nightshade (eastern black nightshade, Solanum ptycanthum); assay: Test C pre-/postemergence: nightshade; type: in vivo; conditions: Preemergence
Procedure, shortened: (§2)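 Preemergence on seeds in loam/sand, postemergence on 2–18 cm (1–4-leaf) plants in peat-based medium; compounds in non-phytotoxic solvent with surfactant. After 13–15 days in greenhouse, visual rating versus controls, 0 (no effect) to 100 (complete control).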

[4] = tested on: bromegrass, downy (downy bromegrass, Bromus tectorum); assay: Test C pre-/postemergence: bromegrass, downy; type: in vivo
Procedure, shortened: as §2

[5] = tested on: cocklebur (common cocklebur, Xanthium strumarium); assay: Test C pre-/postemergence: cocklebur; type: in vivo
Procedure, shortened: as §2

[6] = tested on: barley (winter barley, Hordeum vulgare); assay: Test C postemergence: barley; type: in vivo
Procedure, shortened: as §1

[7] = tested on: woolly cupgrass (Eriochloa villosa); assay: Test C pre-/postemergence: woolly cupgrass; type: in vivo
Procedure, shortened: as §2

[8] = tested on: goosegrass (Eleusine indica); assay: Test C pre-/postemergence: goosegrass; type: in vivo
Procedure, shortened: as §2

[9] = tested on: foxtail, green (green foxtail, Setaria viridis); assay: Test C pre-/postemergence: foxtail, green; type: in vivo
Procedure, shortened: as §2

[10] = tested on: windgrass (Apera spica-venti); assay: Test C postemergence: windgrass; type: in vivo
Procedure, shortened: as §1

[11] = tested on: Oilseed Rape; assay: Test C pre-/postemergence: oilseed rape; type: in vivo; conditions: Preemergence, 250 g ai/ha; scale 0 to 100, 0 no effect, 100 complete control
Source text: (§3) Seeds of plant species selected from blackgrass (Alopecurus myosuroides), bromegrass, downy (downy bromegrass, Bromus tectorum), foxtail, green (green foxtail, Setaria viridis), ryegrass, Italian (Italian ryegrass, Lolium multiflorum), winter wheat (Triticum aestivum), wild oat (Avena fatua), galium (catchweed bedstraw, Galium aparine), bermudagrass (Cynodon dactylon), surinam grass (Brachiaria decumbens), cocklebur (common cocklebur, Xanthium strumarium), corn (Zea mays), large crabgrass (Digitaria sanguinalis), woolly cupgrass (Eriochloa villosa), foxtail, giant (giant foxtail, Setaria faberii), goosegrass (Eleusine indica), johnsongrass (Sorghum halepense), kochia (Kochia scoparia), lambsquarters (Chenopodium album), morningglory (Ipomoea coccinea), nightshade (eastern black nightshade, Solanum ptycanthum), nutsedge, yellow (yellow nutsedge, Cyperus esculentus), pigweed (Amaranthus retroflexus), ragweed (common ragweed, Ambrosia elation), soybean (Glycine max), common (oilseed) sunflower (Helianthus annuus), Russian thistle (Salsola kali) and velvetleaf (Abutilon theophrasti) were planted into a blend of loam soil and sand and treated preemergence with test chemicals formulated in a non-phytotoxic solvent mixture which included a surfactant.
(§4) At the same time, plants selected from these crop and weed species and also barley (winter barley, Hordeum vulgare), canarygrass (Phalaris minor), chickweed (common chickweed, Stellaria media) windgrass (Apera spica-venti) and deadnettle (henbit deadnettle, Lamium amplexicaule) were planted in pots containing Redi-Earth® planting medium (Scotts Company, 14111 Scottslawn Road, Marysville, Ohio 43041) comprising spaghnum peat moss, vermiculite, wetting agent and starter nutrients and treated with postemergence applications of test chemicals formulated in the same manner. Plants ranged in height from 2 to 18 cm (1- to 4-leaf stage) for postemergence treatments.
(§5) Treated plants and controls were maintained in a greenhouse for 13 to 15 days, after which time all species were compared to controls and visually evaluated. Plant response ratings, summarized in Table C, are based on a scale of 0 to 100 where 0 is no effect and 100 is complete control. A dash (-) response means no test result.

[12] = tested on: Oilseed Rape; assay: Test C preemergence: oilseed rape; type: in vivo; conditions: scale of 0 to 100, 0 is no effect, 100 is complete control
Source text: as §3, §5

[13] = tested on: Oilseed Rape; assay: Test C preemergence: oilseed rape; type: in vivo, Brassica napus; conditions: 125 g ai/ha, scale 0 to 100, 0 no effect, 100 complete control
[14] = tested on: Barnyardgrass; assay: Test C preemergence: barnyardgrass; type: in vivo, Echinochloa crus-galli
Source text: as §3, §5

[15] = tested on: barnyardgrass (Echinochloa crus-galli); assay: Test C pre-/postemergence: barnyardgrass; type: in vivo; conditions: Preemergence, 250 g ai/ha; scale 0 to 100, 0 no effect, 100 complete control
Source text: as §3, §4, §5

[16] = tested on: Waterhemp; assay: Test C pre-/postemergence: waterhemp; type: in vivo; conditions: Preemergence, 250 g ai/ha; scale 0 to 100, 0 no effect, 100 complete control
Source text: as §3, §4, §5

[17] = 31 g ai/ha, scale 0 to 100 (0 no effect, 100 complete control)
[18] = 62 g ai/ha, scale 0 to 100 (0 no effect, 100 complete control)
[19] = 125 g ai/ha, scale 0 to 100, 0 no effect, 100 complete control
[20] = 31 g ai/ha, scale of 0 to 100, 0 is no effect, 100 is complete control
[21] = 62 g ai/ha, scale of 0 to 100, 0 is no effect, 100 is complete control
[22] = Postemergence, 31 g ai/ha, scale 0 to 100 (0 no effect, 100 complete control)
[23] = Postemergence, 62 g ai/ha, scale 0 to 100 (0 no effect, 100 complete control)
[24] = Postemergence, 125 g ai/ha, scale 0 to 100, 0 no effect, 100 complete control
[25] = Postemergence, 250 g ai/ha, scale 0 to 100
[26] = Preemergence, 31 g ai/ha, scale of 0 to 100, 0 is no effect, 100 is complete control
[27] = Preemergence, 62 g ai/ha, scale of 0 to 100, 0 is no effect, 100 is complete control
[28] = Preemergence, 125 g ai/ha, scale 0 to 100, 0 no effect, 100 complete control
[29] = Preemergence, 250 g ai/ha, scale 0 to 100, 0 no effect, 100 complete control

`Cc1nn(-c2ccc(C(F)(F)F)c(F)c2)nc1Oc1ccnc(C(F)(F)F)c1` [Compound 148] was tested, and the “Plant response rating, Canarygrass” value [1, 17] was 40, the “Plant response rating, Canarygrass” value [1, 18] was 60 and the “Plant response rating, Canarygrass” value [1, 19] was 95. The “Plant response rating, Canarygrass” value ([1]; 250 g ai/ha, scale 0 to 100) was 95, the “Plant response rating, Deadnettle” value [2, 17] was 95 and the “Plant response rating, Deadnettle” value [2, 18] was 95. For the same molecule, the “Plant response rating, Deadnettle” value [2, 19] was 100, the “Plant response rating, Deadnettle” value ([2]; 250 g ai/ha, scale 0 to 100) was 100 and the “Plant response rating, Nightshade” value [3, 20] was 25. For the same molecule, the “Plant response rating, Nightshade” value [3, 21] was 60, the “Plant response rating, Nightshade” value [3, 19] was 85 and the “Plant response rating, Nightshade” value ([3]; 250 g ai/ha, scale 0 to 100, 0 no effect, 100 complete control) was 85. The “Plant response rating, Bromegrass, Downy” value [4, 22] was 45, the “Plant response rating, Bromegrass, Downy” value [4, 23] was 55 and the “Plant response rating, Bromegrass, Downy” value [4, 24] was 60. For the same molecule, the “Plant response rating, Bromegrass, Downy” value [4, 25] was 65, the “Plant response rating, Bromegrass, Downy” value [4, 26] was 5 and the “Plant response rating, Bromegrass, Downy” value [4, 27] was 40. The “Plant response rating, Bromegrass, Downy” value [4, 28] was 50, the “Plant response rating, Bromegrass, Downy” value [4, 29] was 80 and the “Plant response rating, Cocklebur” value [5, 22] was 85. For the same molecule, the “Plant response rating, Cocklebur” value [5, 23] was 98, the “Plant response rating, Cocklebur” value [5, 24] was 98 and the “Plant response rating, Cocklebur” value [5, 26] was 10. For the same molecule, the “Plant response rating, Barley” value [6, 17] was 35, the “Plant response rating, Barley” value [6, 18] was 35 and the “Plant response rating, Barley” value [6, 19] was 40. The “Plant response rating, Barley” value ([6]; 250 g ai/ha, scale 0 to 100) was 45, the “Plant response rating, Cupgrass, Woolly” value [7, 22] was 55 and the “Plant response rating, Cupgrass, Woolly” value [7, 23] was 55. For the same molecule, the “Plant response rating, Cupgrass, Woolly” value [7, 24] was 65, the “Plant response rating, Cupgrass, Woolly” value [7, 25] was 75 and the “Plant response rating, Cupgrass, Woolly” value [7, 26] was 50. The “Plant response rating, Cupgrass, Woolly” value [7, 27] was 90, the “Plant response rating, Cupgrass, Woolly” value [7, 28] was 95 and the “Plant response rating, Cupgrass, Woolly” value [7, 29] was 98. For the same molecule, the “Plant response rating, Goosegrass” value [8, 23] was 15, the “Plant response rating, Goosegrass” value [8, 24] was 25 and the “Plant response rating, Goosegrass” value [8, 25] was 40. The “Plant response rating, Goosegrass” value [8, 26] was 90, the “Plant response rating, Goosegrass” value [8, 27] was 95 and the “Plant response rating, Goosegrass” value [8, 28] was 98. The “Plant response rating, Goosegrass” value [8, 29] was 100, the “Plant response rating, Foxtail, Green” value [9, 22] was 80 and the “Plant response rating, Foxtail, Green” value [9, 23] was 98. For the same molecule, the “Plant response rating, Foxtail, Green” value [9, 24] was 100, the “Plant response rating, Foxtail, Green” value [9, 25] was 100 and the “Plant response rating, Foxtail, Green” value [9, 26] was 95. For the same molecule, the “Plant response rating, Foxtail, Green” value [9, 27] was 95, the “Plant response rating, Foxtail, Green” value [9, 28] was 95 and the “Plant response rating, Foxtail, Green” value [9, 29] was 95. The “Plant response rating, Windgrass” value [10, 17] was 60, the “Plant response rating, Windgrass” value [10, 18] was 80 and the “Plant response rating, Windgrass” value [10, 19] was 98. The “Plant response rating, Windgrass” value ([10]; 250 g ai/ha, scale 0 to 100) was 100.
For `CCOCc1nn(-c2ccc(F)cc2)nc1Oc1ccnc(C(F)(F)F)c1` [Compound 163], the “Plant response rating, Oilseed Rape” value [11] was 95, the “Plant response rating, Oilseed Rape” value ([12]; 31 g ai/ha) was 0 and the “Plant response rating, Oilseed Rape” value ([12]; 62 g ai/ha) was 50. For the same molecule, the “Plant response rating, Oilseed Rape” value [13] was 80, the “Plant response rating, Barnyardgrass” value [14, 20] was 10 and the “Plant response rating, Barnyardgrass” value [14, 21] was 25. The “Plant response rating, Barnyardgrass” value [14, 19] was 75, the “Plant response rating, Barnyardgrass” value [15] was 100 and the “Plant response rating, Waterhemp” value [16] was 100.

— patent US9302999B2, “Substituted triazoles as herbicides” (E. I. DU PONT DE NEMOURS AND COMPANY, priority 2012, dated 2016)
